Measured values taken from PMC4577729, “7-(Pyrazol-4-yl)-3H-imidazo[4,5-b]pyridine-based derivatives for kinase inhibition: Co-crystallisation studies with Aurora-A reveal distinct differences in the orientation of the pyrazole N1-substituent” (Bioorganic & Medicinal Chemistry Letters, 2015).

What was measured:
Aurora A = target: T1, Aurora A (Homo sapiens, UniProt O14965); assay: Aurora-A microfluidic kinase assay; type: biochemical; conditions: biochemical; mean of two determinations or mean ±SD for n > 2
T1 sequence (O14965 1-403): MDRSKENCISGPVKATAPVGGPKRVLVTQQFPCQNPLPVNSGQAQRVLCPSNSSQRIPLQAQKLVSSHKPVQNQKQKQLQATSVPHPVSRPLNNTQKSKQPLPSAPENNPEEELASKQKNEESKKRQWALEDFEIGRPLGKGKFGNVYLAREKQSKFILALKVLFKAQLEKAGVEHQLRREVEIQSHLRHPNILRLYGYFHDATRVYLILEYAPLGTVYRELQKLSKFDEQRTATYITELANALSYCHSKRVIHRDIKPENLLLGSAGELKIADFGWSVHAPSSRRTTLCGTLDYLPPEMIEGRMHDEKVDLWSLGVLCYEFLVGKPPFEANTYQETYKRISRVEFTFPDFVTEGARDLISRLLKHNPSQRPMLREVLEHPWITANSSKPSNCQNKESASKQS
Description: (§1) As part of our medicinal chemistry programme to discover selective inhibitors of Aurora-A,[12] we introduced the 1-benzyl-1H-pyrazol-4-yl moiety at C7 of the imidazo[4,5-b]pyridine scaffold to provide 7a (Table 1). We previously reported 1,3-dimethyl-1H-pyrazol-4-yl as a preferred substituent at the C2 position of the imidazo[4,5-b]pyridine scaffold[11] and this moiety was therefore incorporated into the design of 7a and analogues presented in this study. […] This in vitro profile prompted us to investigate this C7-pyrazole substituted imidazo[4,5-b]pyridine subseries in more detail. Firstly, we attempted to increase biochemical potency against Aurora-A, and also to improve microsomal stability.
(§2) [17] Aurora-A and Aurora-B IC50 values were determined by using a microfluidic assay which monitors the separation of a phosphorylated product from its substrate, as described in Ref. [12].

Aurora B = Aurora B (Homo sapiens, UniProt Q96GD4); assay: Aurora-B microfluidic kinase assay; conditions: biochemical; mean of two determinations or mean ±SD for n > 2
Description: as §1, §2

[1] = Mouse liver microsomal stability; type: in vitro ADME; conditions: percentage of compound metabolised after a 30 min incubation, mouse liver microsomes
Description: (§3) [18] MLM and HLM microsomal stabilities were determined as described in Ref. [12].

[2] = Human liver microsomal stability; type: in vitro ADME; conditions: percentage of compound metabolised after a 30 min incubation, human liver microsomes
Description: as §3

[3] = test system: SW620 human colon carcinoma cells; assay: SW620 cell growth inhibition; type: cell-based; conditions: 72 h incubation
Description: as §1

[4] = test system: HCT116 human colon carcinoma cells; assay: HCT116 cell growth inhibition; type: cell-based; conditions: 72 h incubation
Description: as §1

BRSK1 = BRSK1 (Homo sapiens, UniProt Q8TDC3); assay: Kinase selectivity profiling; type: biochemical; conditions: 1 µM, assay duplicates
Description: (§4) [20] Kinase selectivity profiling for compounds 7a, 7d, 14d and 14g was carried out at the International Centre for Protein Kinase Profiling, Division of Signal Transduction Therapy, University of Dundee.
(§5) Table S1: Kinase selectivity profiling of compounds 7a and 7d in a 102-kinase panel screened at a concentration of 1 µM.
(§6) Table S2: Kinase selectivity profiling of compounds 14d and 14g in a 105-kinase panel screened at a concentration of 1 µM.

BRSK2 = BRSK2 (Homo sapiens, UniProt Q8IWQ3); assay: Kinase selectivity profiling; type: biochemical; conditions: 1 µM, assay duplicates
Description: as §4, §5, §6

BTK = BTK (Homo sapiens, UniProt Q06187); assay: Kinase selectivity profiling; type: biochemical; conditions: 1 µM, assay duplicates
Description: as §4, §5, §6

CHK1 = CHK1 (Homo sapiens, UniProt O14757); assay: Kinase selectivity profiling; type: biochemical; conditions: 1 µM, assay duplicates
Description: as §4, §5, §6

CHK2 = CHK2 (Homo sapiens, UniProt O96017); assay: Kinase selectivity profiling; type: biochemical; conditions: 1 µM, assay duplicates
Description: as §4, §5, §6

CSK = CSK (Homo sapiens, UniProt P41240); assay: Kinase selectivity profiling; type: biochemical; conditions: 1 µM, assay duplicates
Description: as §4, §5, §6

DYRK3 = DYRK3 (Homo sapiens, UniProt O43781); assay: Kinase selectivity profiling; type: biochemical; conditions: 1 µM, assay duplicates
Description: as §4, §5, §6

GCK = GCK (Homo sapiens, UniProt Q12851); assay: Kinase selectivity profiling; type: biochemical; conditions: 1 µM, assay duplicates
Description: as §4, §5, §6

GSK3b = GSK3b (Homo sapiens, UniProt P49841); assay: Kinase selectivity profiling; type: biochemical; conditions: for GSK3b % activity remaining: 1 µM, assay duplicates
Description: as §4, §5, §6

HIPK2 = HIPK2 (Homo sapiens, UniProt Q9H2X6); assay: Kinase selectivity profiling; type: biochemical; conditions: 1 µM, assay duplicates
Description: as §4, §5, §6

HIPK3 = HIPK3 (Homo sapiens, UniProt Q9H422); assay: Kinase selectivity profiling; type: biochemical; conditions: 1 µM, assay duplicates
Description: as §4, §5, §6

JNK2 = JNK2 (Homo sapiens, UniProt P45984); assay: Kinase selectivity profiling; type: biochemical; conditions: 1 µM, assay duplicates
Description: as §4, §5, §6

MARK2 = MARK2 (Homo sapiens, UniProt Q7KZI7); assay: Kinase selectivity profiling; type: biochemical; conditions: 1 µM, assay duplicates
Description: as §4, §5, §6

MEKK1 = MEKK1 (Homo sapiens, UniProt Q13233); assay: Kinase selectivity profiling; type: biochemical; conditions: 1 µM, assay duplicates
Description: as §4, §5, §6

MINK1 = MINK1 (Homo sapiens, UniProt Q8N4C8); assay: Kinase selectivity profiling; type: biochemical; conditions: 1 µM, assay duplicates
Description: as §4, §5, §6

MSK1 = MSK1 (Homo sapiens, UniProt O75582); assay: Kinase selectivity profiling; type: biochemical; conditions: 1 µM, assay duplicates
Description: as §4, §5, §6

NEK2a = NEK2a (Homo sapiens, UniProt P51955); assay: Kinase selectivity profiling; type: biochemical; conditions: 1 µM, assay duplicates
Description: as §4, §5, §6

PKBa = PKBa (Homo sapiens, UniProt P31749); assay: Kinase selectivity profiling; type: biochemical; conditions: 1 µM, assay duplicates
Description: as §4, §5, §6

PKCa = PKCa (Homo sapiens, UniProt P17252); assay: Kinase selectivity profiling; type: biochemical; conditions: 1 µM, assay duplicates
Description: as §4, §5, §6

PKCz = PKCz (Homo sapiens, UniProt Q05513); assay: Kinase selectivity profiling; type: biochemical; conditions: 1 µM, assay duplicates
Description: as §4, §5, §6

PLK1 = PLK1 (Homo sapiens, UniProt P53350); assay: Kinase selectivity profiling; type: biochemical; conditions: 1 µM, assay duplicates
Description: as §4, §5, §6

RSK2 = RSK2 (Homo sapiens, UniProt P51812); assay: Kinase selectivity profiling; type: biochemical; conditions: 1 µM, assay duplicates
Description: as §4, §5, §6

Src = Src (Homo sapiens, UniProt P12931); assay: Kinase selectivity profiling; type: biochemical; conditions: 1 µM, assay duplicates
Description: as §4, §5, §6

TBK1 = TBK1 (Homo sapiens, UniProt Q9UHD2); assay: Kinase selectivity profiling; type: biochemical; conditions: 1 µM, assay duplicates
Description: as §4, §5, §6

TTK = TTK (Homo sapiens, UniProt P33981); assay: Kinase selectivity profiling; type: biochemical; conditions: 1 µM, assay duplicates
Description: as §4, §5, §6

p38g MAPK = p38g MAPK (Homo sapiens, UniProt P53778); assay: Kinase selectivity profiling; type: biochemical; conditions: 1 µM, assay duplicates
Description: as §4, §5, §6

Chain of GSK3b (P49841 whole entry): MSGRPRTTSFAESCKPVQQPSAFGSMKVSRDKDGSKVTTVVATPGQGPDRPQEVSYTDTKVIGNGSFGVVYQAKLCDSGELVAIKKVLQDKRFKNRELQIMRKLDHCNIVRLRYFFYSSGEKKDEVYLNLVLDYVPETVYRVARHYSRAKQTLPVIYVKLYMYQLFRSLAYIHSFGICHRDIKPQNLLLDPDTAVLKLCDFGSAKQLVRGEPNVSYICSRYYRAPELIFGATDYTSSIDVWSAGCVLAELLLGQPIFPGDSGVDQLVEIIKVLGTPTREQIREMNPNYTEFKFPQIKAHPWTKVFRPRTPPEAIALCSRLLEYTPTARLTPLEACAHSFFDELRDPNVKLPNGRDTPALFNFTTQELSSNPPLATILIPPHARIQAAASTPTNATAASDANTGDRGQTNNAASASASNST
Chain of CHK2 (O96017 whole entry): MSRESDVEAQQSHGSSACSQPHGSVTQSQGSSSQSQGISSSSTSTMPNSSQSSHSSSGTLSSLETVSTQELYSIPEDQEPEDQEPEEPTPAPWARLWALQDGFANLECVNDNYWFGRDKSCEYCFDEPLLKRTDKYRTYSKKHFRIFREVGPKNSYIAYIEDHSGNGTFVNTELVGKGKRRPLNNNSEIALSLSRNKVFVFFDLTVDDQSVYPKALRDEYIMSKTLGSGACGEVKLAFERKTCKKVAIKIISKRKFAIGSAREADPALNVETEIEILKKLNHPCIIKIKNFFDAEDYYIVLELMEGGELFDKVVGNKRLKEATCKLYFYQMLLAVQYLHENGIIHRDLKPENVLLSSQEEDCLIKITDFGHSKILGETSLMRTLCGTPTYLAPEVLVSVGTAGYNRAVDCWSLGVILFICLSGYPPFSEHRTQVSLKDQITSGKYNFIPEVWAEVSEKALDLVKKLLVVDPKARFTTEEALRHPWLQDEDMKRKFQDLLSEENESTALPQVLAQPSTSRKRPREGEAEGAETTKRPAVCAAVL
Chain of BTK (Q06187 whole entry): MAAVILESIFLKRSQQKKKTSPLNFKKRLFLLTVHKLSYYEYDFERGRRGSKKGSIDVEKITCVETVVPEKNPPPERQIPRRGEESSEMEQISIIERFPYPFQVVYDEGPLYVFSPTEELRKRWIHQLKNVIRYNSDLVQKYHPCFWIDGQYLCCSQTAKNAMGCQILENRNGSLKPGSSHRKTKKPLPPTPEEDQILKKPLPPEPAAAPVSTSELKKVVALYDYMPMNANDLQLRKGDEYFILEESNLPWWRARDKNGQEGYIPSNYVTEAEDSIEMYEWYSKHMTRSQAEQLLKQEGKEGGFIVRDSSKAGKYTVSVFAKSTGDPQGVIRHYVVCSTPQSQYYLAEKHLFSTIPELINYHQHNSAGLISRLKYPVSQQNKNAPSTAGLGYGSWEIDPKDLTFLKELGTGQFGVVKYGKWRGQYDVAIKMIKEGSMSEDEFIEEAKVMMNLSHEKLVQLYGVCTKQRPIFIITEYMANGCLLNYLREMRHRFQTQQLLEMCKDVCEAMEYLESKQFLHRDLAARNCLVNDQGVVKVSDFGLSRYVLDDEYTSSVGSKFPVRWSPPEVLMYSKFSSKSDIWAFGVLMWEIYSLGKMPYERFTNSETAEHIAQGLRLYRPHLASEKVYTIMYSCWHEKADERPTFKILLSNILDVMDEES
Chain of BRSK2 (Q8IWQ3 whole entry): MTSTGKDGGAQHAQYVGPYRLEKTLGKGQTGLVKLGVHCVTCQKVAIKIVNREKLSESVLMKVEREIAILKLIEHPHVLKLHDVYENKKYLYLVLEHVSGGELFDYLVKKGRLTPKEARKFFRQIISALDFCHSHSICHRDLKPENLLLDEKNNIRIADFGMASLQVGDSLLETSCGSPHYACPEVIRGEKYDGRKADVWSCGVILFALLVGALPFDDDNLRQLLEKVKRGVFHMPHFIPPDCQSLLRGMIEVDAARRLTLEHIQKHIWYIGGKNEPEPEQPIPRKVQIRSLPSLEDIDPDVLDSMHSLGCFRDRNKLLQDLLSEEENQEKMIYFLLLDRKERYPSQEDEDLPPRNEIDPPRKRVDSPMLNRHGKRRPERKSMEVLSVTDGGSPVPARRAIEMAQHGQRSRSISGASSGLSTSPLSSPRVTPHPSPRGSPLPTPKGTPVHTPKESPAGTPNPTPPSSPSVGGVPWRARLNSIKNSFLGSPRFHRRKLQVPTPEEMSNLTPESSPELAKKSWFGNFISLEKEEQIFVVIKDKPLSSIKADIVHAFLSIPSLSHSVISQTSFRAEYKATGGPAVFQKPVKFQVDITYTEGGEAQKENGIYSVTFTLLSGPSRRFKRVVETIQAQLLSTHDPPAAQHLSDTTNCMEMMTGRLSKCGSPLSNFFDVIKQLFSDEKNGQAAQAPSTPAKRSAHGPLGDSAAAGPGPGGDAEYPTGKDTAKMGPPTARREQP
Chain of PKCz (Q05513 whole entry): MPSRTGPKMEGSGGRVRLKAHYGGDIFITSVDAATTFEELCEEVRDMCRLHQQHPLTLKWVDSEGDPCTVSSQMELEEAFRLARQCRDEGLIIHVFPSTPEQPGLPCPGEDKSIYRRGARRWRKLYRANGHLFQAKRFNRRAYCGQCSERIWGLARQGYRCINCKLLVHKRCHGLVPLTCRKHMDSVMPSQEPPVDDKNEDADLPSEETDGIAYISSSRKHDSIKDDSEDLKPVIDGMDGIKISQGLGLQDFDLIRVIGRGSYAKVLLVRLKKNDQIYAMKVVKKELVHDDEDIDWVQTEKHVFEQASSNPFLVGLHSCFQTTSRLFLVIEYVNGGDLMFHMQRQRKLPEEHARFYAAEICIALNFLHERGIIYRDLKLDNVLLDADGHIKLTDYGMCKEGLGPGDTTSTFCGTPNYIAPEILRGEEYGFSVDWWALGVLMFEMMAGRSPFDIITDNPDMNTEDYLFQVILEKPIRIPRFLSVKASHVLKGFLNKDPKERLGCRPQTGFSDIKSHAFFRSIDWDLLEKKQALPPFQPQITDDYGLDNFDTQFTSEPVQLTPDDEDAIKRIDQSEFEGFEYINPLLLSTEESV
Chain of TTK (P33981 whole entry): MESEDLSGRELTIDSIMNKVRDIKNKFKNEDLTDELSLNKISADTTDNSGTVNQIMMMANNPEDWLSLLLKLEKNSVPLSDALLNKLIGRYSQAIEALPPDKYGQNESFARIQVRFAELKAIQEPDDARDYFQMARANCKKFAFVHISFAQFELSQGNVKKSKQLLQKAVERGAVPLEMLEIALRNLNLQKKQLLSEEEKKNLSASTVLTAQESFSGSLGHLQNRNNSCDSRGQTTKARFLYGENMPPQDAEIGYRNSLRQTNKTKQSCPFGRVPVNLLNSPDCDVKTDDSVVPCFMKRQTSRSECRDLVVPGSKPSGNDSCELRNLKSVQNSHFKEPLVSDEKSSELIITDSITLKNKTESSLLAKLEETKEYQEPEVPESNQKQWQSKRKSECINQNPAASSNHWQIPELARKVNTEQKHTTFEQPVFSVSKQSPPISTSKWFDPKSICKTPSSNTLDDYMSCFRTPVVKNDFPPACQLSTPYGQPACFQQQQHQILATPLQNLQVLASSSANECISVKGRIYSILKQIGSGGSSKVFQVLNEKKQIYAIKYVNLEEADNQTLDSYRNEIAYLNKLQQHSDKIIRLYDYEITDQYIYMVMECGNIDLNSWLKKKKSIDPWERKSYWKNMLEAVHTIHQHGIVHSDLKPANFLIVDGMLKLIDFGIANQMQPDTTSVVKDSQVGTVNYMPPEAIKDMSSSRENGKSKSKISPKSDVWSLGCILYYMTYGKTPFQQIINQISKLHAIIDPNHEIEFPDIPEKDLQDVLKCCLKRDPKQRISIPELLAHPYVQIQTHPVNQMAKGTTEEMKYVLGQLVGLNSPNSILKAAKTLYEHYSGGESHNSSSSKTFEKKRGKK
Chain of Aurora B (Q96GD4 whole entry): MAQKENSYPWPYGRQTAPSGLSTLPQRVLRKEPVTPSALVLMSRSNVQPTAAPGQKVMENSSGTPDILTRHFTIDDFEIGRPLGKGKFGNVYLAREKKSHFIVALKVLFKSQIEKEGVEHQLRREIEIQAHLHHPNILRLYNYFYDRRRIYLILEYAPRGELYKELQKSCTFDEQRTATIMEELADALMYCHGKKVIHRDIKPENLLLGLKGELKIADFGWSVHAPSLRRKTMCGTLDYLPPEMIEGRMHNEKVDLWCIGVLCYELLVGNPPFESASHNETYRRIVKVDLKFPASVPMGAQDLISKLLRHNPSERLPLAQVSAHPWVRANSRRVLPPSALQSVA

Row | SMILES | IC50 (Aurora A) | IC50 (Aurora B) | MLM % met/30 min [1] | HLM % met/30 min [2] | GI50 [3] | GI50 [4] | BRSK1 % activity remaining (BRSK1) | BRSK2 % activity remaining (BRSK2) | BTK % activity remaining (BTK) | CHK1 % activity remaining (CHK1) | CHK2 % activity remaining (CHK2) | CSK % activity remaining (CSK) | DYRK3 % activity remaining (DYRK3) | GCK % activity remaining (GCK) | GSK3b % activity remaining (GSK3b) | HIPK2 % activity remaining (HIPK2) | HIPK3 % activity remaining (HIPK3) | JNK2 % activity remaining (JNK2) | MARK2 % activity remaining (MARK2) | MEKK1 % activity remaining (MEKK1) | further results
1 | Cc1nn(C)cc1-c1nc2c(-c3cnn(Cc4ccccc4)c3)c(Cl)cnc2[nH]1 [Compound 7a] | 0.212 ± 0.107 µM | 0.461 ± 0.147 µM | 40% | 43% | 0.18 µM | 0.15 µM | 36% | 33% | 46% | 68% | 26% | 59% | 25% | 22% | 2% | 6% | 9% | 17% | 31% | 74% | GSK3β inhibition (GSK3b; 1 μM): greater than 80%; MINK1 % activity remaining (MINK1): 28%; MSK1 % activity remaining (MSK1): 62%; NEK2a % activity remaining (NEK2a): 67%; PKBa % activity remaining (PKBa): 70%; PKCa % activity remaining (PKCa): 63%; PKCz % activity remaining (PKCz): 103%; PLK1 % activity remaining (PLK1): 75%; RSK2 % activity remaining (RSK2): 42%; Src % activity remaining (Src): 9%; TBK1 % activity remaining (TBK1): 24%; TTK % activity remaining (TTK): 29%; p38g MAPK % activity remaining (p38g MAPK): 17%
2 | Cc1cc(Cn2cc(-c3c(Cl)cnc4[nH]c(-c5cn(C)nc5C)nc34)cn2)no1 [Compound 14d] | 0.035 µM | 0.075 µM | 35% | 37% | 0.35 µM | 0.34 µM | 61% | 72% | 33% | 52% | 32% | 83% | 30% | 40% | 47% | 11% | 49% | 48% | 28% | 66% | MINK1 % activity remaining (MINK1): 86%; MSK1 % activity remaining (MSK1): 61%; NEK2a % activity remaining (NEK2a): 71%; PKBa % activity remaining (PKBa): 99%; PKCa % activity remaining (PKCa): 83%; PKCz % activity remaining (PKCz): 96%; PLK1 % activity remaining (PLK1): 115%; RSK2 % activity remaining (RSK2): 20%; Src % activity remaining (Src): 8%; TBK1 % activity remaining (TBK1): 7%; TTK % activity remaining (TTK): 42%; p38g MAPK % activity remaining (p38g MAPK): 36%
